Columns and labels:
Du145 cells [1] = assay: Matrigel invasion assay (modified Boyden chamber), Du145 cells; format: cell-based, human
Description: (§1) FIG. 2: Adrenomedullin stimulates Du145 cell proliferation and invasion in vitro. A, AM induced cAMP formation in cultured Du145 cells. Cells (3×10^4 cells/ml) were treated with AM (10^−9 M-10^−7 M) for different times. Each value is the mean±SEM of three independent experiments performed in quadruplate (*, p<0.05; **, p<0.01; ***, p<0.001). B, oppose effects of AM and αAM on the growth of Du145 cells in vitro. For proliferation assays, Du145 cells were seeded at the density of 1×10^4 per well in 6 multiwell plates in presence of RPMI 1640 medium supplemented with 5% FBS. AM at 10^−7 M and αAM (70 μg/ml) were added. As control, rabbit control IgG (70 μg/ml) of irrelevant specificity was used. For each treatment, three wells were prepared, exposed to trypsin and cells were counted in Coulter Counter. Each bar represents the mean±SEM of four independent experiments (**, p<0.01; ***, p<0.001). […] Du145 cells (1.5×10^4 cells) were added into Biocoat Matrigel invasion upper chamber and 10^−7 M of AM were added into the lower chamber, and after 6 h, noninvaded cells in the upper membrane were removed and cells invading into the lower membrane were quantified by fluorescence by adding DAPI reagent at least 45 min before taking the reading. […] Data are expressed as the number of migrated cells in 10 high-power fields and are the means of results from three independent experiments. […]

Du145 cells [2] = assay: Cyclic AMP assay in Du145 cells; format: cell-based, human
Description: FIG. 2: Adrenomedullin stimulates Du145 cell proliferation and invasion in vitro. A, AM induced cAMP formation in cultured Du145 cells. Cells (3×10^4 cells/ml) were treated with AM (10^−9 M-10^−7 M) for different times. Each value is the mean±SEM of three independent experiments performed in quadruplate (*, p<0.05; **, p<0.01; ***, p<0.001). B, oppose effects of AM and αAM on the growth of Du145 cells in vitro. For proliferation assays, Du145 cells were seeded at the density of 1×10^4 per well in 6 multiwell plates in presence of RPMI 1640 medium supplemented with 5% FBS. AM at 10^−7 M and αAM (70 μg/ml) were added. As control, rabbit control IgG (70 μg/ml) of irrelevant specificity was used. For each treatment, three wells were prepared, exposed to trypsin and cells were counted in Coulter Counter. Each bar represents the mean±SEM of four independent experiments (**, p<0.01; ***, p<0.001). C, AM stimulates Du145 cells invasion in vitro. Du145 cells (1.5×10^4 cells) were added into Biocoat Matrigel invasion upper chamber and 10^−7 M of AM were added into the lower chamber, and after 6 h, noninvaded cells in the upper membrane were removed and cells invading into the lower membrane were quantified by fluorescence by adding DAPI reagent at least 45 min before taking the reading. RPMI 1640 containing 2% FBS was used as control. bFGF was used as positive control. Data are expressed as the number of migrated cells in 10 high-power fields and are the means of results from three independent experiments. Each bar represents the mean±SEM (**, p<0.01; ***, p<0.001). D, intracellular signalling pathway induced by AM in Du145 cells. Western blot analysis of phosphorylated cRAF (pcRAF), pMEK1/2, pERK (44 and 42 kDa) and ERK in Du145 cells, stimulated with AM (5×10^−7 M) for 2, 5, 10, 20, and 30 min. AM (5×10^−7 M)-induced phosphorylation of ERK was inhibited by mitogen-activated protein kinase kinase inhibitor, U0126 (10 μM, 30 min). EGF was used as positive control known to stimulate phosphorylation of cRAF, MEK, and ERK. […]

Du145 cells [3] = assay: Cell proliferation assay, Du145 cells; format: cell-based, human; details: AM 10^-7 M
Description: as §1

PC-3 cells [4] = assay: Cell proliferation assay, PC3 cells; format: cell-based, human; details: AM 10^-7 M or αAM 70 μg/ml; 2% FBS
Description: (§2) FIG. 9: Effect of AM on PC3 cells in vitro. A, expression of AMR mRNAs in PC3 cells. Total RNA (1 μg) DNA-free from PC3 cell line was reverse transcribed into cDNA and subjected to real-time quantitative reverse transcription (RT)-PCR for the estimation of relative CLR, RAMP2 and RAMP3 mRNAs to 18S rRNA ratio. B, effects of AM and αAM on the growth of PC3 cells in vitro. For proliferation assays, PC3 cells were seeded at the density of 2×10^4 per well in 24 multiwell plates in the presence of RPMI 1640 medium supplemented with 2% FBS. AM at 10^−7M or αAM (70 μg/ml) were added. As control, rabbit control IgG (70 μg/ml) of irrelevant specificity was used. For each treatment, six wells were prepared, exposed to trypsin and cells were counted in Coulter Counter. Each bar represents the mean±SEM of four independent experiments. […] PC3 cells (3×10^4 cells) were added into Biocoat Matrigel invasion upper chamber and 10^−7 M of AM were added into the lower chamber, and after 6 h, non-invaded cells in the upper membrane were removed and cells invading into the lower membrane were quantified by fluorescence by adding DAPI reagent 45 min before taking the reading. Data are expressed as the number of migrated cells in 10 high-power fields and are the means of results from three independent experiments each performed in triplicate. bFGF was used as positive control. […]

LNCaP cells [5] = assay: Cell proliferation assay, LNCaP cells; format: cell-based, human; details: AM 2×10^-7 M; 5% FBS
Description: (§3) FIG. 10: Effect of AM and αAM on LNCaP cells in vitro. A, total RNA (1 μg) DNA-free from LNCaP cell line was reverse transcribed into cDNA and subjected to real-time quantitative reverse transcription (RT)-PCR for the estimation of relative CLR, RAMP2 and RAMP3 mRNAs to 18S rRNA ratio. B, effects of AM and αAM on LNCaP cells growth in vitro. For proliferation assay, LNCaP cells were seeded and treated in the presence of 5% FBS as described for PC3 cells in FIG. 9. C, no effects of AM on LNCaP cells invasion in vitro. For invasion assays, LNCaP cells (5×10^4 cells) were seeded on a Matrigel layer in a boyden chamber assay and analyzed as described for PC3 cells in FIG. 9.
Cell proliferation assay: The effects of AM, αAM and control IgG on cell proliferation was examined at the indicated time points as described (19).

PC-3 cells [6] = assay: Matrigel invasion assay (modified Boyden chamber), PC3 cells; format: cell-based, human; details: AM 10^-7 M, 6 h
Description: as §2

LNCaP cells [7] = assay: Matrigel invasion assay (modified Boyden chamber), LNCaP cells; format: cell-based, human
Description: as §3
Cell migration and invasion assays: The migration and chemoinvasion were assessed using a modified Boyden chamber assay (7). Du145 (15×10^−3), LNCaP (50×10^−3), and PC3 (30×10^−3) cells were added to the upper compartment during 6 h. For LECs, (30×10^−3) cells were added during 48 h for invasion and 20 h for migration.

Du145 cells [8] = assay: Western blot of phosphorylated cRaf, MEK1/2, ERK and Akt in Du145 cells; format: cell-based, human
Description: FIG. 2: Adrenomedullin stimulates Du145 cell proliferation and invasion in vitro. A, AM induced cAMP formation in cultured Du145 cells. Cells (3×10^4 cells/ml) were treated with AM (10^−9 M-10^−7 M) for different times. Each value is the mean±SEM of three independent experiments performed in quadruplate (*, p<0.05; **, p<0.01; ***, p<0.001). B, oppose effects of AM and αAM on the growth of Du145 cells in vitro. For proliferation assays, Du145 cells were seeded at the density of 1×10^4 per well in 6 multiwell plates in presence of RPMI 1640 medium supplemented with 5% FBS. AM at 10^−7 M and αAM (70 μg/ml) were added. As control, rabbit control IgG (70 μg/ml) of irrelevant specificity was used. For each treatment, three wells were prepared, exposed to trypsin and cells were counted in Coulter Counter. Each bar represents the mean±SEM of four independent experiments (**, p<0.01; ***, p<0.001). C, AM stimulates Du145 cells invasion in vitro. Du145 cells (1.5×10^4 cells) were added into Biocoat Matrigel invasion upper chamber and 10^−7 M of AM were added into the lower chamber, and after 6 h, noninvaded cells in the upper membrane were removed and cells invading into the lower membrane were quantified by fluorescence by adding DAPI reagent at least 45 min before taking the reading. RPMI 1640 containing 2% FBS was used as control. bFGF was used as positive control. Data are expressed as the number of migrated cells in 10 high-power fields and are the means of results from three independent experiments. Each bar represents the mean±SEM (**, p<0.01; ***, p<0.001). D, intracellular signalling pathway induced by AM in Du145 cells. Western blot analysis of phosphorylated cRAF (pcRAF), pMEK1/2, pERK (44 and 42 kDa) and ERK in Du145 cells, stimulated with AM (5×10^−7 M) for 2, 5, 10, 20, and 30 min. AM (5×10^−7 M)-induced phosphorylation of ERK was inhibited by mitogen-activated protein kinase kinase inhibitor, U0126 (10 μM, 30 min). EGF was used as positive control known to stimulate phosphorylation of cRAF, MEK, and ERK. To assess the amount of proteins loaded for each sample, immunoblot analysis was performed with anti-α-actin.
Western blotting analysis: Cell extracts were prepared and processed for CLR, RAMP2 and RAMP3 western blot analysis as described (29). Immunoblotting of phospho-c-Raf, phospho-MEK1/2, phospho-ERK1/2, and ERK1/2 was performed using MAPK-phospho-ERK1/2 pathway samples kit (Cell Signaling Technologie, Inc.).

human LEC = assay: Proliferation, migration and invasion of human LECs in vitro; format: cell-based; details: AM 10^-7 M; proliferation 6 days, migration 20 h, invasion 48 h
Description: Neonatal Human Dermal Lymphatic Microvascular Endothelial Cells (HMVEC-dLyNeo) were purchased from Lonza (Lonza, Basel, Switzerland), and expanded in microvascular endothelial cell growth medium-2 (EGM-2MV, Lonza) with growth supplements (EGM-2MV, Lonza). A, total RNA (1 μg) DNA-free from LECs was reverse transcribed into cDNA and subjected to real-time quantitative reverse transcription (RT)-PCR for the estimation of relative AM, CLR, RAMP2 and RAMP3 mRNAs to 18S rRNA ratio. B, oppose effect of AM and αAM on the growth of LECs in vitro. For proliferation assay, LECs were seeded at the density of 3.5×10^4 per well in 6 multiwell plates in the presence of EBM-2 medium supplemented with 0.5% FBS. AM (10^−7 M) and αAM (70 μg/ml) were added for 6 days treatment. After treatment, cells were exposed to trypsin and were prepared for cell number counting in a coulter counter. […] Cells migrating through the filter were counted after 20 h (C) and those migrating in presence of Matrigel were counted after 48 h (D). Data are expressed as the number of migrated cells in 10-high-power fields, and the values represent the mean±SEM of three independent experiments each performed in triplicate (*p<0.05; **p<0.01; ***p<0.001).
Cell migration and invasion assays: The migration and chemoinvasion were assessed using a modified Boyden chamber assay (7). […]

[9] = test system: lymphatic endothelial cells; assay: LEC death after serum deprivation; format: cell-based, human; details: AM 10^-7 M
Description: FIG. 12. AM is a growth factor survival for lymphatic endothelial cells. Time course of LEC death after DMEM serum deprivation in the absence and presence of AM (10^−7M). Exponentially growing cells were changed into serum-free medium, and all floating cells after 12, 24 and 48 h were counted with a coulter counter. Each point and bar represents mean±SEM (n=6); values were normalized to the total number of floating dead cells 48 h after serum deprivation in the absence of AM, which was set at 100%. **, p<0.01.

In the case of “bFGF: Growth factor used as positive control in invasion and migration assays”, the “effect on invasion relative to AM” value (Du145 cells [1]; bFGF 10^-6 M, positive control) is reported as “similar”.

For adrenomedullin [AM], the “time at which cAMP increase reached a maximum” value (Du145 cells [2]; AM 10^-7 M) was 5 min, the “increase in cAMP content” value (Du145 cells [2]; AM 10^-7 M, IBMX 10^-4 M) was 2.8±0.14 fold and the “stimulation of cAMP formation with graded concentration” value (Du145 cells [2]; AM 10^-9-10^-7 M, 5 min) was “dose-dependent stimulation”. The “stimulation of proliferation compared with untreated cells” value (Du145 cells [3]; 6 days) was 51±9.9%, the “stimulation of proliferation compared with untreated cells” value (Du145 cells [3]; 8 days) was 96±14.6% and the “proliferative response of PC-3 cells” value (PC-3 cells [4]) was “no proliferative responses”. The “growth rates of LNCaP cells versus control cells” value (LNCaP cells [5]) was “slight decrease in the growth rates”, the “increase of invasion compared with control” value (Du145 cells [1]; AM 10^-7 M in bottom wells, 6 h) was 92±22% and the induction of invasion (PC-3 cells [6]) was 144±7.6%. The “effect on LNCaP cells invasion” value (LNCaP cells [7]) was “No effect”, the “levels of p-MEK and p-ERK” value (Du145 cells [8]; AM 5×10^-7 M, as early as 2 and 5 min, sustained up to 30 min) was “significantly increased” and the cRaf phosphorylation (Du145 cells [8]; AM 5×10^-7 M, as early as 2 min, control levels up to 10 min) was “increased cRaf phosphorylation”. For the same compound, the “level of p-Akt” value (Du145 cells [8]; AM stimulation) was “not markedly increased”, the “effect of AM on LECs” value (human LEC) was “induces proliferation, migration and invasion of LECs” and the “apoptosis (floating cells) after serum deprivation” value ([9]; persisted during 48 h, LECs) was “prevented the apoptosis”. The “apoptotic cell death of adherent culture” value ([9]; serum deprived LECs) was “markedly suppressed”.

In the case of `N#CC(=C(/N)Sc1ccccc1N)/C(C#N)=C(\N)Sc1ccccc1N` [U0126], the “inhibition of p-ERK induced by AM” value (Du145 cells [8]; U0126 10 μM, 30 min, AM 5×10^-7 M) is reported as “completely inhibited”.
